Experimental data published in patent publication US12209102B2, “Heterocyclic compounds and uses thereof” (Kumquat Biosciences Inc., priority 2022, dated 2025).

What was measured:
K-Ras G12V = molecular target: T1, K-Ras G12V (Homo sapiens, UniProt P01116, G12V); assay: HTRF resonance energy transfer assay, K-Ras G12V / SOS1 interaction; format: biochemical; details: HTRF assay of Example 5; read-out: IC50 against K-Ras G12V
T1 construct: made in house; host or cells: E. coli BL21 (DE3)
Outline: (§1)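 Compounds, tested in duplicate at 10 μM down to 0.01 μM, were read after about 10 min or more by HTRF as the 665/620 nm emission ratio (337 nm excitation) to derive IC50. This ratio reports FRET between an anti-GST-Eu donor on GST-K-Ras (wild-type or mutant) and an anti-6His-XL665 acceptor on His-hSOS1. Buffer: ~5 mM HEPES pH 7.4, 150 mM NaCl, 1 mM DTT, 0.05% BSA, 0.0025% Igepal.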

K-Ras G12S = molecular target: T2, K-Ras G12S (Homo sapiens, UniProt P01116, G12S); assay: HTRF resonance energy transfer assay, K-Ras G12S / SOS1 interaction; format: biochemical; details: HTRF assay of Example 5; read-out: IC50 against K-Ras G12S
T2 construct: made in house; host or cells: E. coli BL21 (DE3)
T2 sequence (P01116 1-188 isoform P01116-2 G12S): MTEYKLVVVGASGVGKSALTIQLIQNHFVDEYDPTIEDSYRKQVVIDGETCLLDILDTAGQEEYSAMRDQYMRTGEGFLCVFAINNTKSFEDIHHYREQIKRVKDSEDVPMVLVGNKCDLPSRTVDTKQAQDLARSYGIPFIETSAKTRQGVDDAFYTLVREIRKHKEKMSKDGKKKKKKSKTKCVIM
Outline: as §1

A549 cells = assay: Ras cellular assay, growth of cells with K-Ras G12S mutation (CellTiter-Glo); format: cell-based; details: Homo sapiens, cell growth, Example 9, G12S mutation, read-out: IC50 against A549 cells
Outline: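 Growth inhibition IC50 values come from four-parameter fits of CellTiter-Glo luminescence, read about 6 days after compound addition. G12S-mutant A549 cells (e.g. 800/well, RPMI-1640 + 10% heat-inactivated FBS) were plated in tissue-culture-treated or ultra-low-attachment 384-well format. Dosing began the following day with serial dilutions, e.g. 10 points, 3-fold.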

K-Ras G12D = molecular target: T3, K-Ras G12D (Homo sapiens, UniProt P01116, G12D); assay: HTRF resonance energy transfer assay, K-Ras G12D / SOS1 interaction; format: biochemical; details: HTRF assay of Example 5; read-out: IC50 against K-Ras G12D
T3 construct: made in house; host or cells: E. coli BL21 (DE3)
T3 sequence (P01116 1-188 isoform P01116-2 G12D): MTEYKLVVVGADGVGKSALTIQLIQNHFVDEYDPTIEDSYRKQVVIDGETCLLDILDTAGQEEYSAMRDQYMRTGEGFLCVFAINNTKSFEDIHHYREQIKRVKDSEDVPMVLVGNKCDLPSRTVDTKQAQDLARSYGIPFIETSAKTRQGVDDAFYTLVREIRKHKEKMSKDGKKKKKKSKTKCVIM
Outline: as §1

SW620 cells = assay: Ras cellular assay, growth of cells with K-Ras G12V mutation (CellTiter-Glo); format: cell-based; details: Homo sapiens, SW-620; cell growth, Example 9, G12V mutation; read-out: IC50 against SW620 cells
Outline: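 IC50 values came from a four-parameter fit of CellTiter-Glo viability, read roughly 6 days after dosing with e.g. a 10-point threefold dilution series. G12V-mutant SW620 cells (e.g. 800 per well) had been plated the previous day in RPMI-1640/10% heat-inactivated FBS, on tissue culture-treated or ultra-low attachment plates.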

GP2D cells = assay: Ras cellular assay, growth of cells with K-Ras G12D mutation (CellTiter-Glo); format: cell-based; details: cell growth, Example 9, G12D mutation, read-out: IC50 against GP2D cells
K-Ras WT = molecular target: T4, K-Ras WT (Homo sapiens, UniProt P01116); assay: HTRF resonance energy transfer assay, K-Ras WT / SOS1 interaction; format: biochemical; details: HTRF assay of Example 5; read-out: IC50 against K-Ras WT
T4 construct: made in house; host or cells: E. coli BL21 (DE3)
T4 sequence (P01116 1-188 isoform P01116-2): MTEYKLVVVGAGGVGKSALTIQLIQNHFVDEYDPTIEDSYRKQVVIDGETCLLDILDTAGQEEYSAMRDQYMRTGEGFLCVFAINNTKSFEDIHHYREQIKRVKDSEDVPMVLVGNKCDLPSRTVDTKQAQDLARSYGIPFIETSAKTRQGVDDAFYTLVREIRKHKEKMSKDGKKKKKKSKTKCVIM
Outline: as §1

T1 sequence (P01116 1-188 isoform P01116-2 G12V): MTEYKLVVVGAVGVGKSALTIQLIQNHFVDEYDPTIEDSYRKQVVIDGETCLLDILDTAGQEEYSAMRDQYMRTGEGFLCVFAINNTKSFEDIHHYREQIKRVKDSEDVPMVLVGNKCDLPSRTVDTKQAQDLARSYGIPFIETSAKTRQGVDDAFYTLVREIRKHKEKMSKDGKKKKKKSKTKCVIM

Q: With `COCC(=O)N1CCC(N2CCOc3c(Cl)c(-c4ccc(F)c5sc(N)c(C#N)c45)c(F)c4nc(OC[C@@]56CCCN5C[C@H](F)C6)nc2c34)C1` (stereo partly drawn) [Compound 1134, 2-amino-4-(8-chloro-10-fluoro-2-(((2R,7aS)-2-fluorotetrahydro-1H-pyrrolizin-7a(5H)-yl)methoxy)-4-(1-(2-methoxyacetyl)pyrrolidin-3-yl)-5,6-dihydro-4H-[1,4]oxazepino[5,6,7-de]quinazolin-9-yl)-7-fluorobenzo[b]thiophene-3-carbonitrile] as the compound, how does the IC50 (K-Ras G12V) read?
A: Its IC50 is less than 100 nM.

Q: And the IC50 (K-Ras G12S)?
A: Its IC50 is less than 100 nM.

Q: And the IC50 (A549 cells)?
A: Its IC50 is less than 5000 nM.

Q: What about the IC50 (K-Ras G12D) of the same compound?
A: Its IC50 is less than 100 nM.

Q: What about the IC50 (SW620 cells) of the same compound?
A: The IC50 was less than 5000 nM.

Q: What about the IC50 (GP2D cells) of the same compound?
A: The IC50 was less than 500 nM.

Q: And the IC50 (K-Ras WT)?
A: Its IC50 is less than 100 nM.

Q: Which IC50 (K-Ras G12V) does the source give for `C[C@@H]1CCOc2c(Cl)c(-c3ccc(F)c4sc(N)c(C#N)c34)c(F)c3nc(OC[C@@]45CCCN4C[C@H](F)C5)nc(c23)N1CC(F)F` [Compound 1203, 2-amino-4-((R)-9-chloro-4-(2,2-difluoroethyl)-11-fluoro-2-(((2R,7aS)-2-fluorotetrahydro-1H-pyrrolizin-7a(5H)-yl)methoxy)-5-methyl-4,5,6,7-tetrahydro-[1,5]oxazocino[4,3,2-de]quinazolin-10-yl)-7-fluorobenzo[b]thiophene-3-carbonitrile] here?
A: Its IC50 is less than 100 nM.

Q: What about the IC50 (K-Ras G12S) of the same compound?
A: The IC50 was less than 100 nM.

Q: What about the IC50 (A549 cells) of the same compound?
A: Its IC50 is less than 5000 nM.

Q: What about the IC50 (K-Ras G12D) of the same compound?
A: Its IC50 is less than 100 nM.

Q: What about the IC50 (SW620 cells) of the same compound?
A: Its IC50 is less than 5000 nM.

Q: What about the IC50 (GP2D cells) of the same compound?
A: Its IC50 is less than 500 nM.

Q: What about the IC50 (K-Ras WT) of the same compound?
A: The IC50 was less than 100 nM.

Q: With `N#Cc1c(N)sc2c(F)ccc(-c3c(Cl)c4c5c(nc(OC[C@@]67CCCN6C[C@H](F)C7)nc5c3F)N(CCC(F)F)CCCO4)c12` [Compound 1212, 2-amino-4-(9-chloro-4-(3,3-difluoropropyl)-11-fluoro-2-(((2R,7aS)-2-fluorotetrahydro-1H-pyrrolizin-7a(5H)-yl)methoxy)-4,5,6,7-tetrahydro-[1,5]oxazocino[4,3,2-de]quinazolin-10-yl)-7-fluorobenzo[b]thiophene-3-carbonitrile] as the compound, how does the IC50 (K-Ras G12V) read?
A: The IC50 was less than 100 nM.

Q: What about the IC50 (K-Ras G12S) of the same compound?
A: The IC50 was less than 100 nM.

Q: And the IC50 (A549 cells)?
A: The IC50 was less than 5000 nM.

Q: What about the IC50 (K-Ras G12D) of the same compound?
A: The IC50 was less than 100 nM.

Q: What about the IC50 (SW620 cells) of the same compound?
A: The IC50 was less than 5000 nM.

Q: What about the IC50 (GP2D cells) of the same compound?
A: The IC50 was less than 500 nM.

Q: And the IC50 (K-Ras WT)?
A: The IC50 was less than 100 nM.

Q: With `N#Cc1c(N)sc2c(F)ccc(-c3c(Cl)c4c5c(nc(OC[C@@]67CCCN6C[C@H](F)C7)nc5c3F)N(CC(F)F)CCCO4)c12` [Compound 1218, 2-amino-4-(9-chloro-4-(2,2-difluoroethyl)-11-fluoro-2-(((2R,7aS)-2-fluorotetrahydro-1H-pyrrolizin-7a(5H)-yl)methoxy)-4,5,6,7-tetrahydro-[1,5]oxazocino[4,3,2-de]quinazolin-10-yl)-7-fluorobenzo[b]thiophene-3-carbonitrile] as the compound, how does the IC50 (K-Ras G12V) read?
A: The IC50 was less than 100 nM.

Q: And the IC50 (K-Ras G12S)?
A: Its IC50 is less than 100 nM.

Q: And the IC50 (A549 cells)?
A: Its IC50 is less than 5000 nM.

Q: What about the IC50 (K-Ras G12D) of the same compound?
A: The IC50 was less than 100 nM.

Q: And the IC50 (SW620 cells)?
A: Its IC50 is less than 5000 nM.

Q: And the IC50 (GP2D cells)?
A: Its IC50 is less than 500 nM.

Q: And the IC50 (K-Ras WT)?
A: The IC50 was less than 100 nM.

Q: With `N#Cc1c(N)sc2c(F)ccc(-c3c(Cl)c4c5c(nc(OC[C@@]67CCCN6C[C@H](F)C7)nc5c3F)N(C3CCOC3)CC(O)CO4)c12` (stereo partly drawn) [Compound 1225, 2-amino-4-(9-chloro-11-fluoro-2-(((2R,7aS)-2-fluorotetrahydro-1H-pyrrolizin-7a(5H)-yl)methoxy)-6-hydroxy-4-(tetrahydrofuran-3-yl)-4,5,6,7-tetrahydro-[1,5]oxazocino[4,3,2-de]quinazolin-10-yl)-7-fluorobenzo[b]thiophene-3-carbonitrile] as the compound, how does the IC50 (K-Ras G12V) read?
A: The IC50 was less than 100 nM.

Q: And the IC50 (K-Ras G12S)?
A: The IC50 was less than 100 nM.

Q: What about the IC50 (A549 cells) of the same compound?
A: Its IC50 is less than 5000 nM.

Q: What about the IC50 (K-Ras G12D) of the same compound?
A: Its IC50 is less than 100 nM.

Q: And the IC50 (SW620 cells)?
A: The IC50 was less than 5000 nM.

Q: And the IC50 (GP2D cells)?
A: The IC50 was less than 500 nM.

Q: And the IC50 (K-Ras WT)?
A: Its IC50 is less than 100 nM.
